Each structure is given as a SMILES string. Where a name gives a salt, the structure may show the parent alone.

Here are results for 30 compounds from patent publication US20210330611A1, “THERAPY FOR NEUROLOGICAL DISEASES/DISORDERS” (priority 2020, published 2021).

The test system of series [1] is fibrin-induced microglia activation. Kind of series: Image-based assay of fibrin-induced microglia activation (HTS and dose response). It counts as cell-based, rat. The settings on record: primary microglia HTS, fibrin stimulation, increased cell size (>800 μm^2) as marker of activation; for inhibition at 10 µM: Rattus norvegicus, Microglia, read-out: Fibrin % inhibition.

Series [2] deals with primary rat microglia. Kind of series: Cell toxicity (dead cells, size <150 μm2) in LPS assay. As to conditions: primary microglia HTS, LPS stimulation; decreased size (<150 μm^2) as marker of toxicity.
In series [3] the test system is LPS-induced microglia activation. Kind of series: Image-based assay of LPS-induced microglia activation (HTS and dose response). It counts as cell-based, rat. The settings on record: primary microglia HTS, LPS stimulation, increased cell size (>800 μm^2) as marker of activation; for inhibition at 10 µM: Rattus norvegicus, Microglia, 48 h, read-out: LPS % inhibition.

Series [4] concerns primary rat microglia. Description: Cell toxicity (dead cells, size <150 μm2) in coated fibrin (cFib) assay.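 Further: share of dead cells sized under 150 µm2 at 10 µM in fibrin-stimulated microglia HTS.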 The settings on record: primary microglia HTS, fibrin stimulation; decreased size (<150 μm^2) as marker of toxicity.
The test system of series [5] is fibrin- and LPS-induced microglia activation. Kind of series: cells. It counts as cell-based, rat. As to conditions: quadrant by fibrin and LPS inhibition in HTS of 1907 compounds.

`C=C1c2c(Cl)ccc(O)c2C(=O)C2=C(O)[C@]3(O)C(=O)C(C(N)=O)=C(O)[C@@H](N(C)C)[C@@H]3[C@@H](O)[C@H]12.O=C(O)c1cc(S(=O)(=O)O)ccc1O` [Meclocycline Sulfosalicylate]: the Fibrin % inhibition in series [1] is 20%. The “LPS % cell toxicity” value in series [2] stood at 0%. Moreover, the LPS % inhibition in series [3] was 18%. The “Fibrin % cell toxicity” value in series [4] came out at 1%. Also, the “Quadrant (FIG. 5b)” value in series [5] is “Q4”.
For the compound `Cc1ccc(Cl)c(Nc2ccccc2C(=O)O)c1Cl` [Meclofenamic Acid], the inhibition (commonly the drop in the measured response relative to a control, in per cent) at 10 µM in series [1] is 12%; in series [3], 14%. Besides, the “LPS % cell toxicity” value in series [2] is given as 0%. Further, the “Fibrin % cell toxicity” value in series [4] amounted to 1%. Moreover, in series [5], the “Quadrant (FIG. 5b)” value is given as “Q4”.
In the same order, the values of `CN(C)CCOC(=O)COc1ccc(Cl)cc1` [Meclofenoxate] are -23%, 24%, 0%, 1% and “Q4”.
In the same order, the values of `COC(=O)C(N)CS` (stereo not drawn) [Mecysteine Hydrochloride] are 20%, 22%, 0%, 1% and “Q4”.
The like results for `CC(=O)[C@H]1CC[C@H]2[C@@H]3C[C@H](C)C4=CC(=O)CC[C@]4(C)[C@H]3[C@@H](O)C[C@]12C` [Medrysone] were, in that order, 111%, 87%, 4%, 4% and “Q2”.
As for `CCN(CC)CCNC(=O)COc1ccc(OC)cc1` [Mefexamide, Mefexamide Hydrochloride], the Fibrin % inhibition in series [1] was −13%. Besides, the “LPS % cell toxicity” value in series [2] is recorded as 0%. In addition, the LPS % inhibition in series [3] is given as −2%. For the same compound, the “Fibrin % cell toxicity” value in series [4] was 0%. The “Quadrant (FIG. 5b)” value in series [5] is reported as “Q4”.
Consider `COc1ccc2[nH]cc(CCNC(C)=O)c2c1` [Melatonin], for which the inhibition at 10 µM in series [1] is 4%; in series [3], -3%. Also, the “LPS % cell toxicity” value in series [2] was determined as 0%. Moreover, in series [4], the “Fibrin % cell toxicity” value came out at 1%. In addition, the “Quadrant (FIG. 5b)” value in series [5] is on record as “Q4”.
In the same order, the values of `Cc1cnc(NC(=O)C2=C(O)c3ccccc3S(=O)(=O)N2C)s1` [Meloxicam] are -1%, 20%, 0%, 1% and “Q4”.
As for `CC12CC3CC(C)(C1)CC(N)(C3)C2` [Memantine], the inhibition at 10 µM in series [1] turned out to be 2%; in series [3] it was 5%. The “LPS % cell toxicity” value in series [2] came to 0%. Besides, the “Fibrin % cell toxicity” value in series [4] came to 0%. Also, the “Quadrant (FIG. 5b)” value in series [5] is listed as “Q4”.
`CC1=CC(=O)c2ccccc2C1=O` [Menadione]: the inhibition at 10 µM in series [1] is 113%; in series [3], 123%. Besides, the “LPS % cell toxicity” value in series [2] stood at 62%. Moreover, in series [4], the “Fibrin % cell toxicity” value is on record as 87%. The “Quadrant (FIG. 5b)” value in series [5] was “Q2”.
Turning to `C[N+]1(C)CCCC(OC(=O)C(O)(c2ccccc2)c2ccccc2)C1` (stereo not drawn) [Mepenzolate], the results for the inhibition at 10 µM in series [1] and in series [3] were 45% and 34%, respectively. Besides, the “LPS % cell toxicity” value in series [2] was found to be 1%. For the same compound, the “Fibrin % cell toxicity” value in series [4] was found to be 1%. Also, the “Quadrant (FIG. 5b)” value in series [5] is “Q4”.
Regarding `[O-][n+]1cccc(CO)c1` [Mepiroxol], the Fibrin % inhibition in series [1] is reported as −6%. In addition, in series [2], the “LPS % cell toxicity” value is listed as 0%. In addition, the LPS % inhibition in series [3] was found to be 11%. For the same compound, the “Fibrin % cell toxicity” value in series [4] turned out to be 1%. Moreover, the “Quadrant (FIG. 5b)” value in series [5] was “Q4”.
On to `Cc1cccc(C)c1NC(=O)C1CCCCN1C` (stereo not drawn) [Mepivacaine], for which the inhibition at 10 µM in series [1] amounted to 7%; in series [3], 10%. Further, the “LPS % cell toxicity” value in series [2] is on record as 0%. The “Fibrin % cell toxicity” value in series [4] turned out to be 0%. For the same compound, the “Quadrant (FIG. 5b)” value in series [5] is “Q4”.
On to `CCCNC(C)(C)COC(=O)c1ccccc1` [Meprylcaine Hydrochloride], for which the inhibition at 10 µM was -10% in series [1] and 7% in series [3]. For the same compound, the “LPS % cell toxicity” value in series [2] came to 0%. The “Fibrin % cell toxicity” value in series [4] came out at 0%. Also, the “Quadrant (FIG. 5b)” value in series [5] is on record as “Q4”.
Consider `Nc1ccc(O)c(C(=O)O)c1` [Mesalazine], for which the inhibition at 10 µM was determined as 9% in series [1] and 19% in series [3]. In addition, the “LPS % cell toxicity” value in series [2] was found to be 0%. Besides, the “Fibrin % cell toxicity” value in series [4] amounted to 1%. For the same compound, the “Quadrant (FIG. 5b)” value in series [5] is reported as “Q4”.
The like results for `O=S(=O)(O)CCS` [Mesna] were, in that order, 18%, 5%, 0%, 1% and “Q4”.
The like results for `CC(=O)Oc1cccc(C)c1` [Meta-cresyl Acetate] were, in that order, -7%, -3%, 0%, 1% and “Q4”.
In the same order, the values of `Cc1cc(C)cc(OCC2CNC(=O)O2)c1` (stereo not drawn) [Metaxalone] are 13%, 6%, 0%, 1% and “Q4”.
As to `CN1C[C@H](CNC(=O)OCc2ccccc2)C[C@@H]2c3cccc4c3c(cn4C)C[C@H]21` [Metergoline], the inhibition at 10 µM was -12% in series [1] and 16% in series [3]. For the same compound, the “LPS % cell toxicity” value in series [2] amounted to 0%. For the same compound, the “Fibrin % cell toxicity” value in series [4] is listed as 1%. In series [5], the “Quadrant (FIG. 5b)” value is “Q4”.
In the same order, the values of `CC(=O)OC(C)C[N+](C)(C)C` (stereo not drawn) [Methacholine] are 2%, 9%, 0%, 1% and “Q4”.
The like results for `C=C1c2cccc(O)c2C(=O)C2=C(O)[C@]3(O)C(=O)C(C(N)=O)=C(O)[C@@H](N(C)C)[C@@H]3[C@@H](O)[C@H]12` [Methacycline] were, in that order, -10%, 11%, 0%, 0% and “Q4”.
For the compound `COc1ccccc1OCC(O)COC(N)=O` (stereo not drawn) [Methocarbamol], the inhibition at 10 µM in series [1] is 4%; in series [3], 10%. In addition, the “LPS % cell toxicity” value in series [2] worked out at 0%. Besides, the “Fibrin % cell toxicity” value in series [4] is 0%. The “Quadrant (FIG. 5b)” value in series [5] is listed as “Q4”.
In the case of `COc1ccc(OC)c(C(O)C(C)N)c1` (stereo not drawn) [Methoxamine], the results for the inhibition at 10 µM in series [1] and in series [3] were 3% and 1%, respectively. Further, the “LPS % cell toxicity” value in series [2] is listed as 0%. In addition, in series [4], the “Fibrin % cell toxicity” value stood at 1%. Also, the “Quadrant (FIG. 5b)” value in series [5] is “Q4”.
As to `CN1C(=O)CC(C)(c2ccccc2)C1=O` (stereo not drawn) [Methsuximide], the results for the inhibition at 10 µM in series [1] and in series [3] were -39% and 19%, respectively. Also, the “LPS % cell toxicity” value in series [2] is given as 0%. Further, the “Fibrin % cell toxicity” value in series [4] is on record as 0%. The “Quadrant (FIG. 5b)” value in series [5] is given as “Q4”.
For `CN1C(CCl)Nc2cc(Cl)c(S(N)(=O)=O)cc2S1(=O)=O` (stereo not drawn) [Methyclothiazide], the values for the inhibition at 10 µM in series [1] and in series [3] were 25% and 17%, respectively. For the same compound, the “LPS % cell toxicity” value in series [2] was 0%. The “Fibrin % cell toxicity” value in series [4] worked out at 1%. In series [5], the “Quadrant (FIG. 5b)” value was “Q4”.
The like results for `C[N+]1(C)[C@@H]2CC[C@H]1C[C@@H](OC(=O)C(CO)c1ccccc1)C2` (stereo partly drawn) [Methylatropine Nitrate] were, in that order, -2%, 14%, 0%, 1% and “Q4”.
On to `C[C@]12CCC(=O)C=C1CC[C@@H]1[C@@H]2CC[C@@]2(C)[C@H]1CC[C@]2(C)O` [Methyltestosterone], for which the inhibition at 10 µM is -40% in series [1] and -2% in series [3]. In series [2], the “LPS % cell toxicity” value was found to be 0%. Further, the “Fibrin % cell toxicity” value in series [4] was 1%. Besides, in series [5], the “Quadrant (FIG. 5b)” value is listed as “Q4”.
`Cc1cc(=O)[nH]c(=S)[nH]1` [Methylthiouracil]: the inhibition at 10 µM in series [1] turned out to be 31%; in series [3], 16%. For the same compound, the “LPS % cell toxicity” value in series [2] was found to be 0%. Besides, the “Fibrin % cell toxicity” value in series [4] was 0%. Moreover, the “Quadrant (FIG. 5b)” value in series [5] is recorded as “Q4”.
Regarding `COc1cccc(OC)c1C(=O)N[C@@H]1C(=O)N2[C@@H]1SC(C)(C)[C@@H]2C(=O)O` [Meticillin], the values for the inhibition at 10 µM in series [1] and in series [3] were -19% and 18%, respectively. The “LPS % cell toxicity” value in series [2] came out at 0%. Also, the “Fibrin % cell toxicity” value in series [4] amounted to 0%. In addition, the “Quadrant (FIG. 5b)” value in series [5] is recorded as “Q4”.
With `Cc1cc2c(cc1S(N)(=O)=O)S(=O)(=O)CCC2` [Meticrane], the figures for the inhibition at 10 µM in series [1] and in series [3] were -33% and 9%, respectively. The “LPS % cell toxicity” value in series [2] is recorded as 0%. In addition, the “Fibrin % cell toxicity” value in series [4] came out at 0%. Further, in series [5], the “Quadrant (FIG. 5b)” value is recorded as “Q4”.
